From ChEMBL document CHEMBL1201862, “PubChem BioAssay data set” (2004)
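Grown in 96-well plates, cells were treated for 48 hours with each compound at five concentrations. Insufficient inhibition: endpoint recorded as highest concentration tested. Abbreviation: GI50, concentration required for 50% inhibition of growth.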 Active and inactive are the calls of the source. Cut-off read from the data, not from the text of the source: active = GI50 up to about 1.1 µM and inactive = higher.

Tests used:
Assay in all cases: NCI-60 cell line screen, 48 h
A498 = test system: A498
A549 = test system: A549
ACHN = test system: ACHN
CAKI-1 = test system: CAKI-1
K562 = test system: K562
M14 = test system: M14
MOLT-4 = test system: MOLT-4
Malme-3M = test system: Malme-3M
OVCAR-4 = test system: OVCAR-4
SK-MEL-28 = test system: SK-MEL-28
SW-620 = test system: SW-620
TK-10 = test system: TK-10
U-251 = test system: U-251
UACC-62 = test system: UACC-62
UO-31 = test system: UO-31
COLO 205 = test system: COLO 205
HL-60 = test system: HL-60
SF-539 = test system: SF-539
SK-OV-3 = test system: SK-OV-3

Measured: GI50

O=C(N/N=C\c1cccc(O)c1)c1ccncc1
inactive: A498 > 100 µM | A549 > 100 µM | ACHN > 100 µM | CAKI-1 > 100 µM | K562 > 100 µM | M14 > 100 µM | MOLT-4 > 100 µM | Malme-3M > 100 µM | OVCAR-4 > 100 µM | SK-MEL-28 > 100 µM | SW-620 > 100 µM | TK-10 > 100 µM | U-251 > 100 µM | UACC-62 > 100 µM | UO-31 > 100 µM

CCOc1ccc(NC(=O)CC2SC(N)=NC2=O)cc1 (configuration not stated)
inactive: A549 > 100 µM | ACHN > 100 µM | COLO 205 > 100 µM | HL-60 > 100 µM | M14 > 100 µM | MOLT-4 > 100 µM | Malme-3M > 100 µM | OVCAR-4 > 100 µM | SK-MEL-28 > 100 µM | SW-620 > 100 µM | TK-10 > 100 µM | U-251 > 100 µM | UACC-62 > 100 µM | UO-31 > 100 µM

C[N+](C)(C)C.FC(F)(F)C1(C(F)(F)F)O[SiH-]2(OC(C(F)(F)F)(C(F)(F)F)c3ccccc32)c2ccccc21
inactive: A549 10 µM | ACHN 22.8 µM | CAKI-1 26.4 µM | COLO 205 20 µM | K562 5.87 µM | M14 10 µM | MOLT-4 11.7 µM | Malme-3M 19.5 µM | OVCAR-4 6.47 µM | SF-539 11.9 µM | SK-MEL-28 26.2 µM | SW-620 18 µM | TK-10 16.9 µM | U-251 5.4 µM | UO-31 14.6 µM

CCNC(C)Cc1ccccc1 (configuration not stated)
inactive: A498 > 100 µM | A549 > 100 µM | ACHN > 100 µM | CAKI-1 > 100 µM | COLO 205 > 100 µM | HL-60 > 100 µM | K562 > 100 µM | M14 > 100 µM | Malme-3M > 100 µM | OVCAR-4 > 100 µM | SF-539 > 100 µM | SK-MEL-28 > 100 µM | SK-OV-3 > 100 µM | SW-620 > 100 µM | TK-10 > 100 µM | U-251 > 100 µM | UACC-62 > 100 µM | UO-31 > 100 µM

CC(=O)OC12c3ccccc3C1CCCC21OCCCO1 (configuration not stated)
inactive: A498 > 100 µM | A549 > 100 µM | ACHN > 100 µM | CAKI-1 > 100 µM | COLO 205 > 100 µM | K562 > 100 µM | M14 > 100 µM | MOLT-4 > 100 µM | Malme-3M > 100 µM | OVCAR-4 > 100 µM | SF-539 > 100 µM | SK-MEL-28 > 100 µM | SK-OV-3 > 100 µM | SW-620 > 100 µM | TK-10 > 100 µM | U-251 > 100 µM | UACC-62 > 100 µM | UO-31 > 100 µM

CN(Cc1ccccc1)C(=NC#N)N(C)Cc1ccccc1
inactive: A549 > 100 µM | ACHN > 100 µM | CAKI-1 > 100 µM | COLO 205 > 100 µM | M14 > 100 µM | OVCAR-4 > 100 µM | SF-539 > 100 µM | SK-MEL-28 > 100 µM | SK-OV-3 > 100 µM | SW-620 > 100 µM | TK-10 > 100 µM | U-251 > 100 µM | UACC-62 > 100 µM | UO-31 > 100 µM

CN(C)c1nc(N(C)C)nc(N(C)CN(C)c2ccc(Cl)cc2)n1
inactive: A549 > 100 µM | ACHN > 100 µM | HL-60 1.72 µM | K562 > 100 µM | MOLT-4 > 100 µM | Malme-3M > 100 µM | OVCAR-4 > 100 µM | SF-539 > 100 µM | SK-MEL-28 > 100 µM | SK-OV-3 > 100 µM | SW-620 > 100 µM | TK-10 > 100 µM | U-251 > 100 µM | UACC-62 > 100 µM | UO-31 > 100 µM

O=C1NC(=O)C2C(=O)NC(=O)C1C2(c1ccccc1)c1ccc(Cl)cc1 (configuration not stated)
inactive: A498 > 100 µM | A549 > 100 µM | ACHN > 100 µM | CAKI-1 > 100 µM | COLO 205 > 100 µM | HL-60 > 100 µM | K562 > 100 µM | M14 > 100 µM | MOLT-4 > 100 µM | Malme-3M > 100 µM | OVCAR-4 > 100 µM | SF-539 > 100 µM | SK-MEL-28 > 100 µM | SK-OV-3 > 100 µM | SW-620 > 100 µM | TK-10 > 100 µM | UACC-62 > 100 µM | UO-31 > 100 µM

CC1=NOC(=O)C1/N=N/c1ccc(Br)c(C)c1 (configuration not stated)
inactive: A498 21.4 µM | A549 20.3 µM | ACHN 17.8 µM | CAKI-1 16.1 µM | COLO 205 25 µM | HL-60 8.39 µM | K562 13 µM | M14 20.5 µM | MOLT-4 18.4 µM | Malme-3M 18.7 µM | OVCAR-4 15.2 µM | SF-539 20.2 µM | SK-MEL-28 26.6 µM | SK-OV-3 34.8 µM | SW-620 17.6 µM | TK-10 18.6 µM | U-251 18.5 µM | UACC-62 19.3 µM

COc1ccc(/C=N/n2cnc3c(c2=O)S/C(=C2/SC(=S)N(c4ccc(C)cc4)C2=O)N3c2ccccc2)cc1
inactive: A549 41.3 µM | ACHN 49.1 µM | CAKI-1 > 10 µM | COLO 205 > 100 µM | HL-60 58.5 µM | K562 > 10 µM | M14 19.5 µM | MOLT-4 > 10 µM | Malme-3M 19.7 µM | OVCAR-4 17.7 µM | SF-539 30.5 µM | SK-MEL-28 > 100 µM | SK-OV-3 > 100 µM | SW-620 > 100 µM | TK-10 > 100 µM | UACC-62 17.4 µM | UO-31 > 100 µM

NC12CC3CC(C1)CC(Cl)(C3)C2
inactive: A498 > 100 µM | A549 > 100 µM | ACHN > 100 µM | COLO 205 > 100 µM | HL-60 > 100 µM | K562 > 100 µM | M14 > 100 µM | MOLT-4 > 100 µM | Malme-3M > 100 µM | SF-539 > 100 µM | SK-MEL-28 > 100 µM | SK-OV-3 > 100 µM | SW-620 > 100 µM | TK-10 > 100 µM | U-251 > 100 µM | UACC-62 > 100 µM | UO-31 > 100 µM

Cc1ccc(S(=O)(=O)NCC2CCCCC2=O)cc1 (configuration not stated)
inactive: A498 > 100 µM | A549 > 100 µM | CAKI-1 15 µM | COLO 205 > 100 µM | HL-60 45.3 µM | K562 66.1 µM | M14 > 100 µM | MOLT-4 49.7 µM | Malme-3M > 100 µM | OVCAR-4 69.3 µM | SF-539 > 100 µM | SK-MEL-28 > 100 µM | SK-OV-3 > 100 µM | SW-620 > 100 µM | TK-10 > 100 µM | U-251 > 100 µM | UACC-62 66.5 µM | UO-31 57.3 µM

CC(=O)OCC1OC(n2cc([N+](=O)[O-])c(=O)[nH]c2=O)C(OC(C)=O)C(OC(C)=O)C1OC(C)=O (configuration not stated)
inactive: A498 > 100 µM | A549 > 100 µM | ACHN > 100 µM | CAKI-1 > 100 µM | COLO 205 > 100 µM | HL-60 > 100 µM | K562 > 100 µM | M14 > 100 µM | MOLT-4 > 100 µM | Malme-3M > 100 µM | OVCAR-4 > 100 µM | SK-MEL-28 > 100 µM | SK-OV-3 > 100 µM | SW-620 > 100 µM | TK-10 > 100 µM | U-251 > 100 µM | UACC-62 > 100 µM | UO-31 > 100 µM

COc1ccc2c(c1)[n+]([O-])c(-c1c(Cl)cccc1Cl)c(N)[n+]2[O-]
inactive: A498 > 100 µM | A549 45.2 µM | ACHN 62.4 µM | CAKI-1 50.5 µM | COLO 205 30.2 µM | HL-60 36.8 µM | K562 53.6 µM | M14 31.5 µM | MOLT-4 75.3 µM | Malme-3M 21.3 µM | OVCAR-4 71.8 µM | SK-MEL-28 29.9 µM | SK-OV-3 > 100 µM | SW-620 47.1 µM | TK-10 > 100 µM | U-251 37.9 µM | UACC-62 37.7 µM | UO-31 85.3 µM

C=C1C(=O)C23C(O)CC4C5(C)CCCC4(C(O)OC5)C2C(OC(C)=O)CC1C3O (configuration not stated)
inactive: A549 20.8 µM | ACHN 12.2 µM | CAKI-1 4.95 µM | COLO 205 5.16 µM | K562 2.58 µM | M14 3.41 µM | MOLT-4 3.66 µM | Malme-3M 14.3 µM | OVCAR-4 14.3 µM | SF-539 10.9 µM | SK-MEL-28 10.5 µM | SK-OV-3 19.7 µM | SW-620 2.91 µM | TK-10 10.9 µM | U-251 16.6 µM | UACC-62 6.73 µM | UO-31 34.5 µM

CC(C)=CCCC(C)[C@H]1CC(O)C2(C)C3=CCC4C(C)(C)[C@@H](O)CC[C@]4(C)C3=CC[C@]12C (some centres not stated)
inactive: A498 3.98 µM | A549 2.66 µM | CAKI-1 8.36 µM | COLO 205 4.93 µM | HL-60 3.69 µM | K562 1.59 µM | M14 3.27 µM | MOLT-4 15.2 µM | Malme-3M 13.5 µM | OVCAR-4 2.31 µM | SF-539 2.09 µM | SK-OV-3 7.82 µM | SW-620 3.89 µM | TK-10 16.7 µM | U-251 2.28 µM | UACC-62 4.23 µM | UO-31 14.3 µM
